Molecular target: T1, Pirin (Homo sapiens, UniProt O00625)
T1 construct: gene PIR; recombinant human pirin (Abcam, ab123170)
T1 sequence (O00625 1-290): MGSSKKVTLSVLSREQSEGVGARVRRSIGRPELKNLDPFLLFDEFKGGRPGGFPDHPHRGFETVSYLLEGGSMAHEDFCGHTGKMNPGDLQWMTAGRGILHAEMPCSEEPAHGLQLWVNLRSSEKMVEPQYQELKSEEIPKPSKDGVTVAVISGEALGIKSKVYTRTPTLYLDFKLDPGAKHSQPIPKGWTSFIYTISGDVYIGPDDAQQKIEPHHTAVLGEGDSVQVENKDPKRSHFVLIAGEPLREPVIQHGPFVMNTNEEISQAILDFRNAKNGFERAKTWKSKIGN
Assay: SPR (Biacore T200), steady state; also TPP-PISA stabilization in extracts
Assay type: binding

CC(C)Cc1ccc(C(C)C(=O)O)cc1 (stereo not shown) [Ibuprofen] showed a Kd of roughly 546 µM.

From publication PMC11484808, “Streamlined analysis of drug targets by proteome integral solubility alteration indicates organ-specific engagement” (Nature Communications, 2024)
